Converted amounts (≈) assume the structure as drawn. Where two headings read alike, the source gives them in different places.

By IC50 is commonly meant the concentration that gives 50% inhibition. Lower therefore signals greater potency. A word on the MIC: it is the smallest concentration in the dilution series that meets the test's criterion for growth inhibition.

One series deals with P. multocida 46572. The series can be described thus: In vivo mouse lung infection challenge model (murine efficacy). The note with it: for % Survival: 20 mg/kg subcutaneous, harmonized survival relative to vehicle and M9 controls, study ended Day 10. As to the method: The challenge organism was P. multocida 46572. Target challenge concentration was 5×10^2 CFU/mouse. Isolated colonies from overnight growth (37° C. with 5% CO2) on trypticase soy agar (TSA II) blood plates were transferred to room temperature Brain Heart Infusion Broth (BHIB). The broth culture was incubated 3.5-4 hours to approximately mid-log phase of growth, as measured by forward light scatter at 600 nm (OD600, 0.200). The culture was centrifuged to collect the bacterial pellet. The pellet was re-suspended in BHIB and adjusted to provide an approximate concentration of 2.7 log^10 colony forming units (CFU) in 0.04 mL at the highest concentration. The challenge inoculum concentration was confirmed by serial dilutions of the inoculum for CFU enumeration. On Day −5, CD-1 female mice were received. Mice were given standard rodent diet and water ad libitum. On Day 0, bacterial inoculum (0.04 mL) was administered to each mouse (n=36) intranasally. Compounds of the invention were dosed at 20 mg/kg (0.1 mL) in a buffered (˜pH 5.4) propylene glycol, monothioglycerol and water solution by subcutaneous injection. Animals were observed from Days 1-10. The study was terminated on Day 10. In addition, some treatment groups were sampled at 6, 24, and 48 hours post bacterial challenge for RNA sequence analysis of lung tissue.
The murine efficacy model (P. multocida challenge) was optimized, and the treatment group size was powered to be able to observe statistically significant improvement of survival to expected ranges for immunomodulatory compounds. The experimental design was a randomized complete block design. Mice were individually identified and treatment groups comingled within a cage, with every treatment group equally represented across cages. Mortality was the primary variable. Mortality data was analyzed using a generalized mixed model with fixed effect of treatment and random effect of block. Survival time was also analyzed using the SAS PHREG (survival analysis) procedure to examine whether there were significant differences between treatment groups and the control group. Numerous compounds of the invention and M9 (positive control) were tested in this model at a dose of 20 mg/kg (Table 3). Typical percent survival for no treatment control is in the range of 0-20% based on study to study variation in challenge inoculum and rate of infection. […] Mouse survival for M9 was about 90-100%, further supporting its residual antibacterial properties against the bacterial strain. Harmonized survival accounts for % survival relative to vehicle (“−” control) and M9 (“+” control)) survival data (Table 3).

For another series, the system named is H. somni. The series can be described thus: MIC, H. somni. Particulars: H. somni strains.
For a further series, the system named is TNF-α. Description: Bovine whole blood assay, LPS-induced TNF-α. The series is classed as cell-based. Particulars: Bos taurus, fresh whole bovine blood, LPS 1 μg/mL. As for the experimental part: (§1) (protected from light) for 30 minutes.
The test system of the next series is IL-1β. The series can be described thus: Bovine whole blood assay, IL-1β.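 Note: compound concentration at which rising IL-1β release signals cytotoxicity.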 The series is classed as cell-based. Particulars: overstimulation of IL-1β, perceived cellular toxicity concentration. As for the experimental part:
as §1

The next series relates to IL-6. The series can be described thus: Bovine whole blood assay, IL-6. The series is classed as cell-based. The note with it: Bos taurus, fresh whole bovine blood, LPS 1 μg/mL. As for the experimental part: as §1
A further series concerns E. coli. Description: MIC, E. coli. Particulars: Escherichia coli.
For a further series, the system named is S. aureus. The series can be described thus: MIC, S. aureus. Particulars: Staphylococcus aureus.
For series [1], the system named is P. multocida. The series can be described thus: MIC, P. multocida. Particulars: for MIC: Pasteurella multocida.
In another series the test system is M. haemolytica. Description: MIC, M. haemolytica. Particulars: for MIC: Mannheimia haemolytica.
Series [2] has as its system P. multocida. Description: Murine P. multocida intranasal challenge study, survival. In kind it is in vivo. Particulars: 9 mg/kg (T04) subcutaneous 18 hours after challenge, 5×10^3 CFU/mouse. As for the experimental part:
In one murine P. multocida intranasal challenge study, mice were administered tulathromycin (16 mg/kg; T02), M9 (32 mg/kg; T03), or ceftiofur (9 mg/kg; T04) by subcutaneous injection 18 hours after bacterial challenge (5×10^3 CFU/mouse) for lung tissue RNA sequence analysis. Survival at Day 7 was about 80%, 50%, and 90% for T02, T03, and T04, respectively, compared to placebo at 0%. Differential gene expression from total lung tissue RNA sequence analysis indicated at least 226 unique genes were up or down regulated (with significance) for T03. Output from ingenuity pathway analysis of these unique genes predicted major upstream regulators of the involved pathways. Data was analyzed based on the number of genes being modulated in the same direction that were associated with a given upstream regulator. An activation z-score of 2 or greater is considered significant and the direction change is indicated by + (activated) or − (inhibited). The top 5 pathways included: IL-9 signaling, glucocorticoid receptor signaling, prolactin signaling, JAK STAT signaling, and IL-17 signaling. The top 6 upstream regulators (activation z-score) included: lipopolysaccharide (−6.725), TNF (−4.669), IFNγ (−5.759), IL-1ß (−5.947), STAT1 (−2.787), and poly rI:rC-RNA (−5.289). Even though this study was run in the murine model, the top upstream regulators identified as being modulated by M9 include an almost ubiquitous overlap with the pathways identified in the natural disease study as being key mediators in BRD, and therefore is modulating highly relevant pathways in BRD pathobiology.

Series [3] deals with BRD pathogens, M. haemolytica and P. multocida. Description: MIC screening panel, BRD pathogens (CLSI broth micro-dilution). Particulars: read-out: MIC flag (*) at Ex #.
[4] abbreviates: P. multocida 46572, murine efficacy challenge strain.
The mark [5] stands for this setting: M. haemolytica 46571, bovine efficacy challenge strain.

For the molecule `CC[C@H]1OC(=O)[C@H](C)[C@@H](O[C@H]2C[C@@](C)(OC)[C@](O)(CNCCOC)[C@H](C)O2)[C@H](C)[C@@H](O[C@@H]2O[C@H](C)C[C@H]3[C@H]2OC(C(F)(F)F)N3C)[C@](C)(O)C[C@@H](C)CN[C@H](C)[C@@H](O)[C@]1(C)O` (stereo partly drawn) [Example A-2, (2R,3S,4R,5R,8R,10R,11R,12S,13S,14R)-11-(((3aR,4S,6R,7aS)-1,6-dimethyl-2-(trifluoromethyl)hexahydro-2H-pyrano[4,3-d]oxazol-4-yl)oxy)-2-ethyl-3,4,10-trihydroxy-13-(((2R,4R,5S,6S)-5-hydroxy-4-methoxy-5-(((2-methoxyethyl)amino)methyl)-4,6-dimethyltetrahydro-2H-pyran-2-yl)oxy)-3,5,8,10,12,14-hexamethyl-1-oxa-6-azacyclopentadecan-15-one], the “% Survival” value in the series on P. multocida 46572 is given as 18%.
Take `CCN1CCN(c2cc3c(cc2F)c(=O)c(C(=O)O)cn3C2CC2)CC1` [enrofloxacin]: in the series on H. somni, the “MIC values, range over strains” value is less than 0.06 to 1 µg/mL.
For the molecule `CS(=O)(=O)c1ccc([C@@H](O)[C@@H](CF)NC(=O)C(Cl)Cl)cc1` [florfenicol], the “MIC values, range over strains” value in the series with H. somni was in the range of 0.12 to 2 µg/mL.
On to `CC[C@H]1OC(=O)[C@H](C)[C@@H](O[C@H]2C[C@@](C)(OC)[C@](O)(CNCCO)[C@H](C)O2)[C@H](C)[C@@H](O[C@@H]2O[C@H](C)C[C@H]3[C@H]2OC(C(F)(F)F)N3C)[C@](C)(O)C[C@@H](C)CN[C@H](C)[C@@H](O)[C@]1(C)O` (stereo partly drawn) [Example A-3, (2R,3S,4R,5R,8R,10R,11R,12S,13S,14R)-11-(((3aR,4S,6R,7aS)-1,6-dimethyl-2-(trifluoromethyl)hexahydro-2H-pyrano[4,3-d]oxazol-4-yl)oxy)-2-ethyl-3,4,10-trihydroxy-13-(((2R,4R,5S,6S)-5-hydroxy-5-(((2-hydroxyethyl)amino)methyl)-4-methoxy-4,6-dimethyltetrahydro-2H-pyran-2-yl)oxy)-3,5,8,10,12,14-hexamethyl-1-oxa-6-azacyclopentadecan-15-one], for which the IC50 in the series with TNF-α is 20 µM; with IL-6, 40 µM. The “IL-1β OS of LPS” value in the series with IL-1β was found to be 32 µM. Moreover, the “% Survival” value in the series on P. multocida 46572 is on record as 11%. For the same molecule, the MIC with E. coli (E. coli 25922), in the series on E. coli (E. coli W3110), against S. aureus, with P. multocida [1] (P. multocida 43137), against P. multocida [1] (setting [4]) and with M. haemolytica (M. haemolytica 12726) was greater than 64 µg/mL throughout. The MIC against M. haemolytica (M. haemolytica 33396) and in the series on M. haemolytica (setting [5]) was greater than 64 µg/mL in each case.
As to `CCCN1C[C@H](C)[C@@H](O)[C@](C)(O)[C@@H](CC)OC(=O)[C@H](C)[C@@H](O[C@H]2C[C@@](C)(OC)[C@@H](O)[C@H](C)O2)[C@H](C)[C@@H](O[C@@H]2O[C@H](C)C[C@H](N(C)C)[C@H]2O)[C@](C)(O)C[C@H]1C` [gamithromycin, reference compound], the figures for the “MIC values, range over strains” value in the series on H. somni, against P. multocida [1] (the same P. multocida strains of the screening panel) and against M. haemolytica (the same M. haemolytica strains of the screening panel) were 0.25 to 8 µg/mL, 1 to 2 µg/mL and 0.5 to 1 µg/mL, respectively.
As to `CC[C@H]1OC(=O)[C@H](C)[C@@H](O[C@H]2C[C@@](C)(OC)[C@](O)(CN3CCN(C)CC3)[C@H](C)O2)[C@H](C)[C@@H](O[C@@H]2O[C@H](C)C[C@H]3[C@H]2OC(C(F)(F)F)N3C)[C@](C)(O)C[C@@H](C)CN[C@H](C)[C@@H](O)[C@]1(C)O` (stereo partly drawn) [Example B-2, (2R,3S,4R,5R,8R,10R,11R,12S,13S,14R)-11-(((3aR,4S,6R,7aS)-1,6-dimethyl-2-(trifluoromethyl)hexahydro-2H-pyrano[4,3-d]oxazol-4-yl)oxy)-2-ethyl-3,4,10-trihydroxy-13-(((2R,4R,5S,6S)-5-hydroxy-4-methoxy-4,6-dimethyl-5-((4-methylpiperazin-1-yl)methyl)tetrahydro-2H-pyran-2-yl)oxy)-3,5,8,10,12,14-hexamethyl-1-oxa-6-azacyclopentadecan-15-one], the IC50 in the series on TNF-α was 5 µM. In addition, the “IL-1β OS of LPS” value in the series on IL-1β is 5 µM. The “% Survival” value in the series on P. multocida 46572 is given as 47%. In addition, in the series with P. multocida 46572 (mouse, in vivo), the “clinical efficacy in P. multocida infection in mice” value is “clinically efficacious”.
Turning to `CO/N=C(\C(=O)N[C@@H]1C(=O)N2C(C(=O)O)=C(CSC(=O)c3ccco3)CS[C@H]12)c1csc(N)n1` [ceftiofur], in the series with P. multocida [2], the “Survival at Day 7” value is roughly 90%.
In turn, `CCCNC[C@]1(O)[C@H](C)O[C@@H](O[C@H]2[C@H](C)[C@@H](O[C@@H]3O[C@H](C)C[C@H]4[C@H]3OC(C(F)(F)F)N4C)[C@](C)(O)C[C@@H](C)CN[C@H](C)[C@@H](O)[C@](C)(O)[C@@H](CC)OC(=O)[C@@H]2C)C[C@@]1(C)OC` (stereo partly drawn) [Example A-1, (2R,3S,4R,5R,8R,10R,11R,12S,13S,14R)-11-(((3aR,4S,6R,7aS)-1,6-dimethyl-2-(trifluoromethyl)hexahydro-2H-pyrano[4,3-d]oxazol-4-yl)oxy)-2-ethyl-13-(((2R,4R,5S,6S)-5-((propylamino)methyl)-5-hydroxy-4-methoxy-4,6-dimethyltetrahydro-2H-pyran-2-yl)oxy)-3,4,10-trihydroxy-3,5,8,10,12,14-hexamethyl-1-oxa-6-azacyclopentadecan-15-one] showed an IC50 in the series with TNF-α of less than 3 µM. Moreover, the “IL-1β OS of LPS” value with IL-1β is greater than 500 µM. Also, in the series with P. multocida 46572, the “% Survival” value was 43%. For the same molecule, the minimal inhibitory concentration (MIC) in the series on E. coli (E. coli 25922) was greater than 64 µg/mL; in the series with E. coli (E. coli W3110), greater than 64 µg/mL; against S. aureus, greater than 64 µg/mL; in the series with P. multocida [1] (P. multocida 43137), greater than 64 µg/mL; against P. multocida [1] (setting [4]), 64 µg/mL (≈ 73.4 µM); in the series on P. multocida [1] (read-out: MIC flag (*) at Ex. #, P. multocida challenge strain (46572K), Table 3) it was less than 64 µg/mL. Moreover, the MIC in the series with M. haemolytica (M. haemolytica 12726) was greater than 64 µg/mL; against M. haemolytica (M. haemolytica 33396), greater than 64 µg/mL; in the series on M. haemolytica (setting [5]) it was greater than 64 µg/mL; in series [3] it was less than 64 µg/mL.

The record behind these values is US12390440B2, “Immunomodulating trifluoromethyl-aminal azalides” (Zoetis Services LLC, priority 2020, dated 2025).
